Where a name gives a salt, the structure may show the parent alone. Read-outs that look alike come from different tables or passages of the source.
Key:
[1] = Potentiation of amphetamine: stereotypies in rats after d-amphetamine sulphate; type: in vivo; conditions: 30 min before 5 mg/kg d-amphetamine sulphate i.p., over 3 hours, maximum 24
Description: 1. POTENTIATION OF AMPHETAMINE
The test compound is administered intraperitoneally to rats 30 minutes before the intraperitoneal injection of 5 mg/kg of d-amphetamine sulphate. The intensity of the stereotypies over a period of 3 hours is assessed by attributing a number from 0 to 4. Table I indicates the sum of the assessments as a function of the doses administered. The maximum assessment is 24.

[2] = Anorexigenic activity in dogs; type: in vivo, Beagle dogs; conditions: Canis lupus familiaris, read-out: percentage inhibition of consuming food
Description: 2. ANOREXIGENIC ACTIVITY IN DOGS
Beagle dogs are conditioned to take their food over the course of 5 minutes once per day. The test compound is administered orally in the form of a single dose of 10 mg/kg one hour before the food is presented. The amount of food ingested is measured at regular intervals.
Table II gives the percentage inhibition of consuming food as a function of the time after treatment.

[3] = Beagle dogs, 10 mg/kg oral, 1 hr after treatment
[4] = Beagle dogs, 10 mg/kg oral, 2 hrs after treatment
[5] = Beagle dogs, 10 mg/kg oral, 4 hrs after treatment
[6] = Beagle dogs, 10 mg/kg oral, 24 hrs after treatment

Structure (SMILES) | sum of the assessments of intensity of stereotypies ([1]; 1 mg/kg intraperitoneal) | sum of the assessments of intensity of stereotypies ([1]; 4 mg/kg intraperitoneal) | sum of the assessments of intensity of stereotypies ([1]; 16 mg/kg intraperitoneal) | inhibition in vivo at 10 mg/kg ([2]; po, 1 h) [%] | inhibition in vivo at 10 mg/kg ([2]; po, 2 h) [%] | inhibition in vivo at 10 mg/kg ([2]; po, 4 h) [%] | sum of the assessments of intensity of stereotypies ([1]; 8 mg/kg intraperitoneal) | inhibition in vivo at 10 mg/kg [2, 3] [%] | inhibition in vivo at 10 mg/kg [2, 4] [%] | inhibition in vivo at 10 mg/kg [2, 5] [%] | inhibition in vivo at 10 mg/kg [2, 6] [%] | inhibition in vivo at 10 mg/kg ([2]; po, 24 h) [%] | sum of the assessments of intensity of stereotypies ([1]; 32 mg/kg intraperitoneal) | sum of the assessments of intensity of stereotypies ([1]; 2 mg/kg intraperitoneal)
CC1NC(C2CC2)CC1c1ccccc1.Cl (stereo not shown) [Example XXII, 2-cyclopropyl-4-phenyl-5-methyl-pyrrolidine hydrochloride] | 8 | 9 | 12 | 50 | 50 | 0 |  |  |  |  |  |  |  | 
CCN1C(C)C(c2cccc(C(F)(F)F)c2)CC1C1CC1 (stereo not shown) [XXXVIII, N-ethyl-2-cyclopropyl-4-(m-trifluoromethylphenyl)-5-methylpyrrolidine] | 20 | 24 |  | 0 | 0 |  | 24 |  |  |  |  |  |  | 
CC1(C)NC(C2CC2)CC1c1cccc(F)c1.Cl (stereo not shown) [XXVIII, 2-cyclopropyl-4-(m-fluorophenyl)-5,5-dimethylpyrrolidine hydrochloride] | 16 | 17 | 16 |  |  |  |  | 100 | 100 | 100 | 0 |  |  | 
C#CCN1C(C)C(c2ccc(Cl)c(Cl)c2)CC1C1CC1.Cl (stereo not shown) [Example XXXV, N-propargyl-2-cyclopropyl-4-(3',4'-dichlorophenyl)-5-methylpyrrolidine hydrochloride] | 18 | 23 | 23 | 60 | 60 | 60 |  |  |  |  |  | 0 |  | 
C#CCN1C(C)C(c2ccc(Cl)cc2)CC1C1CC1.Cl (stereo not shown) [XXXVI, N-propargyl-2-cyclopropyl-4-(p-chlorophenyl)-5-methylpyrrolidine hydrochloride] |  |  |  | 0 | 0 |  | 24 |  |  |  |  |  | 24 | 
CC1(C)NC(C2CC2)CC1c1cccc(Cl)c1.Cl (stereo not shown) [XXVI, 2-cyclopropyl-4-(m-chlorophenyl)-5,5-dimethylpyrrolidine hydrochloride] | 12 | 14 | 19 |  |  |  |  | 60 | 60 | 60 | 0 |  |  | 
CC1(C)NC(C2CC2)CC1c1ccc2c(c1)OCO2 (stereo not shown) [XXXII, 2-cyclopropyl-4-(3',4'-methylenedioxyphenyl)-5,5-dimethylpyrrolidine hydrochloride] |  |  |  | 100 | 100 | 100 | 24 |  |  |  |  | 0 | 23 | 18
Cc1ccc(C2CC(C3CC3)NC2C)cc1.Cl (stereo not shown) [XXXIII, 2-cyclopropyl-4-(p-methylphenyl)-5-methyl-pyrrolidine hydrochloride] |  |  |  | 0 | 0 |  | 19 |  |  |  |  |  | 24 | 12
CC1(C)NC(C2CC2)CC1c1ccc(Cl)cc1.Cl (stereo not shown) [Example XXIII, 2-cyclopropyl-4-(p-chlorophenyl)-5,5-dimethyl-pyrrolidine hydrochloride] |  |  |  |  |  |  | 18 | 100 | 100 | 100 | 50 |  | 17 | 12

From patent US4005103A, “Pyrrolidine derivatives” (priority 1973, dated 1977)
